Laboratory results: US8071575B2, “Methods and compounds for the targeted delivery of agents to bone for interaction therewith” (priority 2007, dated 2011)

Experiments:
Format in all cases: in vivo, Sprague-Dawley female rats
OVX rats [1] = experiment: Bone mechanical competence indentation test; conditions: present-tense example, no data or figure
Method: (§1) Animals. Six month old, bilaterally ovariectomized (OVX) or sham operated Sprague-Dawley female rats (Harlan Laboratories, Indianapolis, Ind.) were maintained at the University of Louisville Research Resources Center at 22° C. with a 12-h light/dark cycle and ad libitum access to tap water and rodent chow (Purina Laboratory Rodent Diet 5001). All animal procedures were approved by the Institutional Animal Care and Use Committee, which is certified by the American Association for Accreditation of Laboratory Animal Care.
(§2) In vivo experiments were conducted in order to investigate the efficacy of compounds of the presently-disclosed subject matter. In all of the experiments, OVX and sham operated rats were randomly divided into groups of 5-7 animals. In all of the studies experimental groups included: i) Sham-operated control (euthanized six weeks post surgery as a pretreatment control), ii) OVX control (euthanized six weeks post surgery as a pretreatment control), iii) Sham control receiving vehicle, iv) OVX control receiving vehicle, v) OVX receiving 17-ethinyl estradiol (equimolar concentration with a selected test compound), vi) OVX receiving alendronate (1.6 mg/kg), and vii) OVX receiving parathyroid hormone 1-34 (PTH) ([…]). 17-ethinyl estradiol (17 EE) is a free estrogenic agent known to be orally active, and can serve as an example of an anti-catabolic agent. Alendronate (Alen) is a bisphosphonate that is currently used to treat osteoporosis (e.g., Fosamax®, Merck & Co., Inc,), and can serve as an example of an anti-catabolic agent. Parathyroid hormone 1-34 (PTH) is an agent that can serve as an example of an anabolic agent. All compounds and vehicle (1% DMSO in corn oil) were administered three times per week orally by gavage except for PTH which was administered via a subcutaneous injection in a volume of 0.5 ml/kg body mass thrice per week. Compound administration was initiated 6 weeks following surgery and lasted for 6 weeks (18 doses total).
(§3) Compounds of the presently-disclosed subject matter were orally administered to OVX rats at various doses. As indicated above all BTE's were administered three times per week for 6 weeks.
(§4) Following 6 weeks of treatment, blood was obtained from each animal via cardiac puncture following an overnight fast and animals were subsequently euthanized via carbon dioxide asphyxiation. Blood was centrifuged immediately and the obtained serum samples were aliquoted and stored at −70° C. prior to analysis. Uteri were removed and fresh weights were obtained. Uterine masses were normalized to body mass at the end of the experiment. The left and right femora and left and right tibiae were subsequently collected from each animal, cleaned of soft tissue, and stored in saline at 4° C. prior to analysis.
Bone Mechanical Competence Indentation Test. After sacrifice, the left tibiae were trimmed to expose the cancellous bone of the proximal tibial metaphysis and an indentation test was performed by advancing a flat-tipped cylindrical post (1.5 mm diameter) axially into the cut surface to measure the compressive strength of the cancellous bone structure.

OVX rats [2] = experiment: Rat Osteocalcin EIA (serum); conditions: 100 or 1000 μg/kg doses
Method: as §1
In vivo experiments were conducted in order to investigate the efficacy of compounds of the presently-disclosed subject matter. In all of the experiments, OVX and sham operated rats were randomly divided into groups of 5-7 animals. […]
Rat Osteocalcin EIA. […] Rat serum osteocalcin levels were measured using the Rat Osteocalcin EIA Kit from Biomedical Technologies, Incorporated (Stoughton, Mass.) as recommended by the manufacturer.

OVX rats [3] = experiment: Quantitative determination of lipid metabolism (total cholesterol, HDL, LDL) in rat serum
Method: as §1, §2, §4
Quantitative Determination of Lipid Metabolism (Total Cholesterol HDL, and LDL) in Rat Serum. Total cholesterol, high-density lipoprotein (HDL), and low-density lipoprotein (LDL) were quantitatively determined in the serum of rats in order to evaluate the extraosseous effects of estrogen treatment on lipid metabolism. Commercially available kits from Wako Diagnostics (Richmond, Va.) were used for the evaluations as recommended by the manufacturer.

OVX rats [4] = experiment: Volume fraction, ex vivo micro-computed tomography of tibia; conditions: present-tense example, no data or figure
Method: as §1, §2, §3, §4
Volume Fraction—Ex vivo micro-computed tomography (μCT). Volume fraction is a representative value for the amount of bone that occupies a given volume or space. High resolution image data were collected using a customized micro-CT system (ACTIS 150/225 system, BIR Inc., Lincolnshire, Ill.). The metaphysis of each right tibia was scanned over a three millimeter range and three-dimensional images were reconstructed. Data were subsequently processed to reveal the volume fraction (BV/TV) occupied by trabecular (cancellous) bone tissue, cortical bone tissue, and whole bone tissue. The resulting data provides information regarding the density of whole bone, cortical bone, and trabecular bone.

[5] = Body weight of OVX rats during treatment; conditions: oral 3000 μg/kg, three times per week for 6 weeks
Method: as §1
In vivo experiments were conducted in order to investigate the efficacy of compounds of the presently-disclosed subject matter. In all of the experiments, OVX and sham operated rats were randomly divided into groups of 5-7 animals. In all of the studies experimental groups included: i) Sham-operated control (euthanized six weeks post surgery as a pretreatment control), ii) OVX control (euthanized six weeks post surgery as a pretreatment control), iii) Sham control receiving vehicle, iv) OVX control receiving vehicle, v) OVX receiving 17-ethinyl estradiol (equimolar concentration with a selected test compound), vi) OVX receiving alendronate (1.6 mg/kg), and vii) OVX receiving parathyroid hormone 1-34 (PTH) ([…]). 17-ethinyl estradiol (17 EE) is a free estrogenic agent known to be orally active, and can serve as an example of an anti-catabolic agent. […]

OVX rats [6] = experiment: Uterine mass and uterine mass to body weight ratio in OVX rats; conditions: OVX rats, oral 3000 μg/kg; compared to animals treated with 17-ethinyl estradiol
Method: as §1, §2, §3, §4
Uterine Mass and Body Weight. […] Uterine mass can be used to as a measure of estrogenic effect occurring in a tissue outside the bone in response to treatment with a test compound or composition. Generally, a lower uterine mass can be associated with a decreased risk of adverse side effects associated with the test compound or composition. A ratio of uterine mass to body weight can be used to correct for any increase in uterine size attributable to the relative size of the individual animal. Body weight and/or uterine mass also serve as an indirect measures of toxicity of a test compound.

COc1ccc(NC(=O)COCCOCCNC(=O)CCOC2CCC3C4CCc5cc(O)ccc5C4CCC23C)c(O)c1C(N)=O (stereo not shown) [Formula 123]
bone strength (indentation test) (OVX rats [1]): increase bone strength | serum osteocalcin levels (OVX rats [2]): stimulates osteocalcin | lipid metabolism (total cholesterol, HDL, LDL in serum) (OVX rats [3]; rat, in vivo): limited or no effect | volume fraction (BV/TV) of trabecular, cortical and whole bone tissue (OVX rats [4]): increase bone density

COc1ccc(NC(=O)CCC(=O)OC2CCC3C4CCC5=CC(=O)CCC5(C)C4CCC23C)c(O)c1C(N)=O (stereo not shown) [Formula 33]
bone strength (indentation test) (OVX rats [1]): increase bone strength | lipid metabolism (total cholesterol, HDL, LDL in serum) (OVX rats [3]; present-tense example, no data or figure): limited or no effect | body weight [5]: lower body weights as compared to the OVX animals | volume fraction (BV/TV) of trabecular, cortical and whole bone tissue (OVX rats [4]): increase bone density | ratio of uterine mass to body weight (OVX rats [6]): lower | uterine mass (OVX rats [6]): lower
